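96-well plates; 48 h exposure; 5 concentrations. Endpoints by linear interpolation between flanking doses. Not reached: highest tested concentration assigned. At the TGI there is no net growth.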
Columns and labels:
Assay in all cases: inhibition of tumour cell growth, NCI panel, 48 h
786-0 renal = tested on: 786-0 renal
A498 renal = tested on: A498 renal
A549 NSCLC = tested on: A549 NSCLC
ACHN renal = tested on: ACHN renal
BT-549 breast = tested on: BT-549 breast
CAKI-1 renal = tested on: CAKI-1 renal
CCRF-CEM leukemia = tested on: CCRF-CEM leukemia
COLO 205 colon = tested on: COLO 205 colon
EKVX NSCLC = tested on: EKVX NSCLC
HCC-2998 colon = tested on: HCC-2998 colon
HCT-116 colon = tested on: HCT-116 colon
HCT-15 colon = tested on: HCT-15 colon
HOP-62 NSCLC = tested on: HOP-62 NSCLC
HOP-92 NSCLC = tested on: HOP-92 NSCLC
HS 578T breast = tested on: HS 578T breast
HT29 colon = tested on: HT29 colon
IGROV1 ovarian = tested on: IGROV1 ovarian
K-562 leukemia = tested on: K-562 leukemia
KM12 colon = tested on: KM12 colon
LOX IMVI melanoma = tested on: LOX IMVI melanoma
M14 melanoma = tested on: M14 melanoma
MALME-3M melanoma = tested on: MALME-3M melanoma
MCF7 breast = tested on: MCF7 breast
MDA-MB-231 breast = tested on: MDA-MB-231 breast
MDA-MB-435 = tested on: MDA-MB-435
MDA-N = tested on: MDA-N
MOLT-4 leukemia = tested on: MOLT-4 leukemia
NCI-H226 lung = tested on: NCI-H226 lung
NCI-H23 lung = tested on: NCI-H23 lung
NCI-H460 lung = tested on: NCI-H460 lung
NCI-H522 lung = tested on: NCI-H522 lung
NCI/ADR-RES ovarian = tested on: NCI/ADR-RES ovarian
OVCAR-3 ovarian = tested on: OVCAR-3 ovarian
OVCAR-4 ovarian = tested on: OVCAR-4 ovarian
OVCAR-5 ovarian = tested on: OVCAR-5 ovarian
OVCAR-8 ovarian = tested on: OVCAR-8 ovarian
PC-3 prostate = tested on: PC-3 prostate
RPMI-8226 leukemia = tested on: RPMI-8226 leukemia
RXF 393 renal = tested on: RXF 393 renal
SF-268 CNS = tested on: SF-268 CNS
SF-295 CNS = tested on: SF-295 CNS
SF-539 CNS = tested on: SF-539 CNS
SK-MEL-2 melanoma = tested on: SK-MEL-2 melanoma
SK-MEL-5 melanoma = tested on: SK-MEL-5 melanoma
SK-OV-3 ovarian = tested on: SK-OV-3 ovarian
SN12C renal = tested on: SN12C renal
SNB-19 CNS = tested on: SNB-19 CNS
SR leukemia = tested on: SR leukemia
SW-620 colon = tested on: SW-620 colon
T-47D breast = tested on: T-47D breast
TK-10 renal = tested on: TK-10 renal
U251 CNS = tested on: U251 CNS
UACC-257 melanoma = tested on: UACC-257 melanoma
UACC-62 melanoma = tested on: UACC-62 melanoma
UO-31 renal = tested on: UO-31 renal
DU-145 prostate = tested on: DU-145 prostate
HL-60(TB) leukemia = tested on: HL-60(TB) leukemia
SK-MEL-28 melanoma = tested on: SK-MEL-28 melanoma
SNB-75 CNS = tested on: SNB-75 CNS

Measured: TGI

CCc1n[nH]c(=O)n1NC(=O)CCCC(=O)O
not listed: DU-145 prostate | HL-60(TB) leukemia | SK-MEL-28 melanoma | SNB-75 CNS
> 100 µM: all other assays above

C/C=N\n1c(C)n[nH]c1=O
not listed: MDA-MB-231 breast | SK-OV-3 ovarian
> 100 µM: all other assays above
